Measured values from US20070003987A1, “Screening method for substance binding to merozoite surface protein-1/42” (priority 2003, published 2007).

Assays:
P. falciparum (FCB-1) = experiment: growth inhibition assay by [3H] hypoxanthine uptake; format: cell-based, Plasmodium falciparum; conditions: Plasmodium falciparum, Erythrocyte, read-out: IC50, inhibition of erythrocyte invasion ([3H] hypoxanthine incorporation, FIG. 2)
Procedure: Asexual blood stages of P. falciparum (FCB-1) were maintained at 37° C. in RPMI 1640/Albumax medium (Gibco) supplemented with 2 mM L-glutamine as previously described (Blackman, 1994 Methods Cell Biol. 45, 213-220). Cultures were gassed with 7% CO2, 5% O2 and 88% N2 and maintained by routine passage in fresh human erythrocytes. Parasites were synchronised by Percoll and sorbitol treatment (Holder & Freeman, 1982 J. Exp. Med. 156, 1528-1538); schizonts were purified by centrifugation over Percoll and then returned to culture in the presence of fresh erythrocytes. After 4 h, during which time released merozoites invaded erythrocytes, the cells were treated with 5% sorbitol for 10 min to lyse the residual schizonts, before returning the parasites to culture.
Suramin and NTS were also assayed for P. falciparum growth inhibition using [^3H] hypoxanthine uptake (generally as described by Desjardins et al, 1979 Antimicrob. Agents Chemother. 16, 710-718). Serial dilutions of the compounds in 96-well plates were incubated at 37° C. with purified mature schizonts at a final parasitaemia of ^˜0.5% and a haematrocrit of ^˜2% in triplicate cultures. […] The filters were wetted with scintillation cocktail and the bound radioactivity counted in a β-counter. […] The amount of radioactivity in each sample was expressed as a percentage of activity in the control wells containing no compound. […]

[1] = target: T1, MSP119 from P. falciparum (Plasmodium falciparum, UniProt P04933, S1528A); experiment: binding of suramin by fluorimetry
T1 construct: contained the 96 amino acid MSP119 fragment, preceded by a single His residue; N-terminal leader […]; (His6 + Factor Xa site); made in house; host or cells: Pichia pastoris (vector pPIC9K)
T1 sequence (P04933 1526-1618 S1528A): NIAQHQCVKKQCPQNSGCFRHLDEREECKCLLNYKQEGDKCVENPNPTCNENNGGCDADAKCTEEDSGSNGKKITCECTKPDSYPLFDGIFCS
Excerpt: Plasmodium falciparum MSP119 (Swiss-Prot 04933) was expressed from a synthetic gene optimised for Pichia pastoris expression (European Patent No. EP1180120). This construct, inserted at the SnaBI site of vector pPIC9K (Invitrogen), contained the N-terminal leader sequence YHHHHHHIEGRH preceding the MSP119 sequence. A point mutation (Ser3 to Ala) was also introduced to eliminate N-glycosylation at Asn1. Following purification of MSP119 as described previously (Morgan et al, 1999 J. Mol. Biol. 289, 113-122), the N-terminal tag was cleaved with Factor Xa (New England Biolabs) and MSP119 was purified by gel filtration (Superdex 200). The fmal product contained the 96 amino acid MSP119 fragment, preceded by a single His residue.
(§1) The intrinsic fluorescence of suramin was used to determine its capacity to bind to the various MSP1-derived proteins. The fluorescence was measured using a Perkin Elmer LS-3B or a Spex Fluoro Max 2 fluorimeter. Suramin was excited at a wavelength of 315 or 330 nm with 2.5 nm resolution, the emission spectra were measured at wavelengths ranging from 350-450 nm. Suramin and the MSP1 proteins were diluted in 20 mM NaH2PO4, 150 mM NaCl at pH 7.2 and analysed at 10 or 20° C. Titrations were performed by adding aliquots of the suramin solution to the MSP1 solution. […] The Kd for the suramin-MSP1 binding was determined from three independent experiments.

P. vivax MSP142 = experiment: binding of suramin by fluorimetry
Excerpt: The MSP142 protein from P. vivax was cloned into plasmid jmp28, a modified pET-28 vector that encodes an N-terminal peptide MHHHHHHIEGRWIL immediately upstream of the inserted sequence. P. vivax (Belem strain) DNA was used as a template for PCR based cloning. The sequence of the expressed protein (following the vector encoded N-terminal peptide) corresponded to residues Asp 1325 to Ser 1704, Accession number A39401.
The protein was expressed in BL21(DE3)pLysS cells by induction of a culture at an OD600 of 0.6-0.8 with IPTG at a final concentration of 1 mM. The cells were induced for 3 h at 37° C. and then harvested by centrifugation. […]
as §1, with “C.” for “C. Titrations were performed by adding aliquots of the suramin solution to the MSP1 solution.”

Cc1ccc(C(=O)Nc2ccc(S(=O)(=O)O)c3cc(S(=O)(=O)O)cc(S(=O)(=O)O)c23)cc1NC(=O)c1cccc(NC(=O)Nc2cccc(C(=O)Nc3cc(C(=O)Nc4ccc(S(=O)(=O)O)c5cc(S(=O)(=O)O)cc(S(=O)(=O)O)c45)ccc3C)c2)c1 [suramin]
IC50 (P. falciparum (FCB-1)): 60 µM | enhancement of suramin fluorescence on addition to MSP119 [1]: No fluorescence enhancement | enhancement of intrinsic suramin fluorescence on binding (P. vivax MSP142): large binding-induced enhancements
